Data taken from PubChem BioAssay AID328 (DTP/NCI, 2004).
Values joined by “and” are separate entries in the source; they are usually repeats but may differ in a detail not shown here. Equal values may be shown once. Toxic doses and inconclusive results are not listed. How the source made its calls: active means survival T/C of 150% or more; inactive means T/C below 125% in these data.

System: BDF1 mice, P388 leukemia ip, median survival T/C
Assay: NCI In Vivo Anticancer Drug Screen. Data for tumor model P388 Leukemia (intraperitoneal) in B6D2F1 (BDF1) mice
Settings: endpoint: median survival time, higher = longer survival
How it was run: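 Compound-treated tumour-bearing mice were compared with vehicle-treated controls. Survival was recorded, and the value is the treated-group measurement divided by the control-group measurement (T/C).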

[1] = dose: 50.0 mg/kg/injection, schedule: Q01DX009 (ip), vehicle: saline with Tween-80
[2] = dose: 100.0 mg/kg/injection, schedule: Q01DX009 (ip), vehicle: saline with Tween-80
[3] = dose: 200.0 mg/kg/injection, schedule: Q01DX009 (ip), vehicle: saline with Tween-80
[4] = dose: 100.0 mg/kg/injection, schedule: Q04DX003 (ip), vehicle: saline
[5] = dose: 200.0 mg/kg/injection, schedule: Q04DX003 (ip), vehicle: saline
[6] = dose: 400.0 mg/kg/injection, schedule: Q04DX003 (ip), vehicle: saline
[7] = dose: 200.0 mg/kg/injection, schedule: Q01DX009 (ip), vehicle: Klucel (hydroxypropylcellulose) (HPC)
[8] = dose: 100.0 mg/kg/injection, schedule: Q01DX009 (ip), vehicle: Klucel (hydroxypropylcellulose) (HPC)
[9] = dose: 100.0 mg/kg/injection, schedule: Q04DX003 (ip), vehicle: Klucel (hydroxypropylcellulose) (HPC)
[10] = dose: 200.0 mg/kg/injection, schedule: Q04DX003 (ip), vehicle: Klucel (hydroxypropylcellulose) (HPC)
[11] = dose: 400.0 mg/kg/injection, schedule: Q01DX009 (ip), vehicle: Klucel (hydroxypropylcellulose) (HPC)
[12] = dose: 400.0 mg/kg/injection, schedule: Q04DX003 (ip), vehicle: Klucel (hydroxypropylcellulose) (HPC)
[13] = dose: 150.0 mg/kg/injection, schedule: Q01DX009 (ip), vehicle: saline
[14] = dose: 100.0 mg/kg/injection, schedule: Q01DX001 (ip), vehicle: saline
[15] = dose: 200.0 mg/kg/injection, schedule: Q01DX001 (ip), vehicle: saline
[16] = dose: 400.0 mg/kg/injection, schedule: Q01DX001 (ip), vehicle: saline
[17] = dose: 50.0 mg/kg/injection, schedule: Q01DX009 (ip), vehicle: saline
[18] = dose: 200.0 mg/kg/injection, schedule: Q01DX009 (ip), vehicle: saline
[19] = dose: 12.5 mg/kg/injection, schedule: Q01DX009 (ip), vehicle: saline
[20] = dose: 25.0 mg/kg/injection, schedule: Q01DX009 (ip), vehicle: saline
[21] = dose: 100.0 mg/kg/injection, schedule: Q01DX009 (ip), vehicle: saline
[22] = dose: 400.0 mg/kg/injection, schedule: Q01DX009 (ip), vehicle: saline
[23] = dose: 50.0 mg/kg/injection, schedule: Q04DX003 (ip), vehicle: saline with Tween-80
[24] = dose: 100.0 mg/kg/injection, schedule: Q04DX003 (ip), vehicle: saline with Tween-80
[25] = dose: 200.0 mg/kg/injection, schedule: Q04DX003 (ip), vehicle: saline with Tween-80

Measured: T/C

O=c1oc2c(CN3CCCC3)c(O)ccc2c2c1CCCC2
inactive: dose: 1.0 mg/kg/injection, schedule: Q01DX009 (ip), vehicle: Klucel (hydroxypropylcellulose) (HPC) 98 % of control | dose: 2.0 mg/kg/injection, schedule: Q01DX009 (ip), vehicle: Klucel (hydroxypropylcellulose) (HPC) 109 % of control | dose: 4.0 mg/kg/injection, schedule: Q01DX009 (ip), vehicle: Klucel (hydroxypropylcellulose) (HPC) 104 % of control | dose: 8.0 mg/kg/injection, schedule: Q01DX009 (ip), vehicle: Klucel (hydroxypropylcellulose) (HPC) 109 % of control | dose: 16.0 mg/kg/injection, schedule: Q01DX009 (ip), vehicle: Klucel (hydroxypropylcellulose) (HPC) 98 % of control | dose: 32.0 mg/kg/injection, schedule: Q01DX009 (ip), vehicle: Klucel (hydroxypropylcellulose) (HPC) 99 % of control

COC(=O)C1=COC(C)C2CN3CCc4c([nH]c5ccccc45)C3CC12 (stereo unspecified)
inactive: dose: 20.0 mg/kg/injection, schedule: Q01DX010 (ip), vehicle: saline 90 % of control | dose: 40.0 mg/kg/injection, schedule: Q01DX010 (ip), vehicle: saline 90 % of control | dose: 160.0 mg/kg/injection, schedule: Q01DX010 (ip), vehicle: saline 90 % of control

OC(Nc1nccs1)C(Cl)(Cl)Cl (stereo unspecified)
inactive: [1] 104 % of control | [2] 110 % of control | [3] 94 % of control

CCCCCCCCCC(=O)CCC
inactive: [4] 100 % of control | [5] 100 % of control | [6] 104 % of control

C1=CC2(OCCO2)C2CC=CC3(OCCO3)C2C1 (stereo unspecified)
inactive: dose: 12.5 mg/kg/injection, schedule: Q01DX009 (ip), vehicle: Klucel (hydroxypropylcellulose) (HPC) 114 % of control | dose: 25.0 mg/kg/injection, schedule: Q01DX009 (ip), vehicle: Klucel (hydroxypropylcellulose) (HPC) 110 % of control and 123 % of control | [7] 117 % of control

CN(C(=O)N(C)c1ccccc1)c1ccccc1
inactive: [8] 100 % of control | [9] 91 % of control | [7] 90 % of control | [10] 91 % of control | [11] 100 % of control | [12] 87 % of control

O.[Co].[Co].[NH2-].[NH2-].[NH2-].[NH2-].[NH2-].[NH2-].[NH2-].[NH2-].[NH2-]
inactive: dose: 0.5 mg/kg/injection, schedule: Q01DX009 (ip), vehicle: water 100 % of control | dose: 1.5 mg/kg/injection, schedule: Q04DX003 (ip), vehicle: water 121 % of control | dose: 2.0 mg/kg/injection, schedule: Q01DX009 (ip), vehicle: water 95 % of control | dose: 3.0 mg/kg/injection, schedule: Q04DX003 (ip), vehicle: water 95 % of control | dose: 4.0 mg/kg/injection, schedule: Q01DX009 (ip), vehicle: water 100 % of control

CCCCCCCCSC(=S)N(C)NC(=O)c1ccccn1
inactive: [1] 99 % of control | [2] 105 % of control

O=C1CC/C(=N\O)N1
inactive: dose: 75.0 mg/kg/injection, schedule: Q01DX009 (ip), vehicle: saline 93 % of control | [13] 86 % of control

O=C(c1ccccc1)C12CC3CC(CC(C3)C1)C2
inactive: dose: 6.25 mg/kg/injection, schedule: Q01DX009 (ip), vehicle: saline with Tween-80 90 % of control and 98 % of control | dose: 12.5 mg/kg/injection, schedule: Q01DX009 (ip), vehicle: saline with Tween-80 90 % of control | dose: 25.0 mg/kg/injection, schedule: Q01DX009 (ip), vehicle: saline with Tween-80 90 % of control and 99 % of control | [1] 97 % of control | [3] 107 % of control

CC(C)Oc1ccc(C(=O)NS(=O)(=O)c2ccc(N)cc2)cc1
inactive: [14] 113 % of control | [15] 104 % of control | [16] 100 % of control

CC1NC(=O)NC1CCCCCC(=O)O (stereo unspecified)
inactive: [8] 95 % of control | [9] 116 % of control | [7] 90 % of control | [10] 104 % of control | [11] 95 % of control | [12] 91 % of control

CC([NH-])C(=O)O.O=C(O)CN(CC(=O)O)CC(=O)O.[Co+2]
inactive: [17] 110 % of control and 113 % of control | dose: 66.0 mg/kg/injection, schedule: Q01DX009 (ip), vehicle: saline 114 % of control | [4] 87 % of control | [13] 104 % of control | [18] 104 % of control | [5] 104 % of control | [6] 91 % of control

NCC1OC(OC2C(N)CC(N)C(O)C2OC2OC(CO)C(O)C2O)C(N)C(O)C1O (stereo unspecified)
inactive: [19] 104 % of control | [20] 111 % of control | [17] 111 % of control | [21] 110 % of control and 114 % of control and 120 % of control | [13] 105 % of control | [18] 119 % of control | dose: 225.0 mg/kg/injection, schedule: Q01DX009 (ip), vehicle: saline 99 % of control | [22] 99 % of control

NNC(=O)CCCCCC(=O)NN
inactive: [14] 100 % of control | dose: 100.0 mg/kg/injection, schedule: Q01DX009 (ip), vehicle: alcohol 110 % of control | [4] 95 % of control | [15] 100 % of control | dose: 200.0 mg/kg/injection, schedule: Q01DX009 (ip), vehicle: alcohol 95 % of control | [5] 113 % of control | [16] 100 % of control | dose: 400.0 mg/kg/injection, schedule: Q01DX009 (ip), vehicle: alcohol 90 % of control | [6] 90 % of control

Cc1nc(N)c(Cl)nc1C
inactive: [23] 102 % of control and 104 % of control | [24] 103 % of control | dose: 150.0 mg/kg/injection, schedule: Q04DX003 (ip), vehicle: saline with Tween-80 103 % of control | [25] 95 % of control and 104 % of control | dose: 400.0 mg/kg/injection, schedule: Q04DX003 (ip), vehicle: saline with Tween-80 104 % of control

CC(Br)C(=O)NCC(=O)O (stereo unspecified)
inactive: [23] 90 % of control | [24] 95 % of control | [25] 100 % of control

c1ccc(CNCCN(Cc2ccccc2)Cc2ccccc2)cc1
inactive: dose: 0.78 mg/kg/injection, schedule: Q01DX009 (ip), vehicle: water 105 % of control | dose: 1.56 mg/kg/injection, schedule: Q01DX009 (ip), vehicle: water 106 % of control | dose: 3.12 mg/kg/injection, schedule: Q01DX009 (ip), vehicle: water 99 % of control and 101 % of control | dose: 6.25 mg/kg/injection, schedule: Q01DX009 (ip), vehicle: water 93 % of control and 110 % of control | dose: 12.5 mg/kg/injection, schedule: Q01DX009 (ip), vehicle: water 110 % of control and 115 % of control | dose: 25.0 mg/kg/injection, schedule: Q01DX009 (ip), vehicle: water 101 % of control

CC(C)(C)c1ccc(/C(N)=N/O)cc1
inactive: dose: 50.0 mg/kg/injection, schedule: Q01DX005 (ip), vehicle: saline with Tween-80 92 % of control | dose: 100.0 mg/kg/injection, schedule: Q01DX005 (ip), vehicle: saline with Tween-80 101 % of control

COc1cccc(/C=C/[N+](=O)[O-])c1OC
inactive: dose: 6.25 mg/kg/injection, schedule: Q01DX009 (ip), vehicle: Klucel (hydroxypropylcellulose) (HPC) 113 % of control | dose: 6.25 mg/kg/injection, schedule: Q01DX009 (ip), vehicle: saline 100 % of control | [19] 106 % of control | dose: 12.5 mg/kg/injection, schedule: Q01DX010 (ip), vehicle: carboxymethylcellulose (CMC) 115 % of control | [20] 104 % of control | dose: 35.0 mg/kg/injection, schedule: Q01DX009 (ip), vehicle: Klucel (hydroxypropylcellulose) (HPC) 117 % of control | [17] 113 % of control | dose: 50.0 mg/kg/injection, schedule: Q04DX003 (ip), vehicle: saline 102 % of control | [21] 104 % of control | [4] 98 % of control | [18] 91 % of control | [5] 95 % of control | [22] 91 % of control | [6] 106 % of control
